Data taken from US20220387433A1, “TYPE V PHOSPHODIESTERASE INHIBITOR COMPOSITIONS, METHODS OF MAKING THEM AND METHODS OF USING THEM IN PREVENTING OR TREATING ELEVATED PULMONARY VASCULAR PRESSURE OR PULMONARY HEMORRHAGES” (American Regent, Inc., priority 2019, published 2022).

System: horses
Experiment: Target Animal Safety (TAS) study / toxicity of formulations in horses
Format: in vivo
Details: in vivo
From the text: The drug product vehicle contains about 35-45 wt % alcohol, 46 wt % propylene glycol and 10 wt % WFI. […] Test doses (in horses) with the vehicle confirmed that the dose toxicity was due to the vehicle. More specifically, propylene glycol was believed to be the cause of toxicity.

SMILES: CNC[C@H](O)[C@@H](O)[C@H](O)[C@H](O)CO [meglumine, 1-Deoxy-1-methylaminosorbitol]
- Toxicity to horses: non-toxic
